Results from the NIST ThermoML archive (doi:10.1016/j.tca.2012.05.004).

Assay: xn = mol fraction of the nth substance listed
Settings: 101.3 kPa, Liquid, Vibrating tube method

CCCCCCC(C)O (stereo unspecified) [2-octanol] + ClCCCl
mass density [kg/m3]
Settings	288.15 K	293.15 K	298.15 K	303.15 K	308.15 K	313.15 K
x1 = 0.0499	1215.16	1208.22	1201.27	1194.29	1187.27	1180.23
x1 = 0.1	1175.12	1168.45	1161.76	1155.05	1148.31	1141.54
x1 = 0.1503	1139.01	1132.67	1126.33	1119.85	1113.38	1106.89
x1 = 0.2006	1106.43	1100.33	1094.18	1087.99	1081.76	1075.51
x1 = 0.2498	1077.37	1071.56	1065.66	1059.71	1053.73	1047.71
x1 = 0.3	–	–	–	–	1027.49	–
x1 = 0.3002	1050.06	1044.59	1038.96	1033.26	–	1021.69
x1 = 0.35	1025.54	1020.16	1014.7	1009.18	1003.62	998.027
x1 = 0.3999	1002.85	997.633	992.342	987.014	981.649	976.252
x1 = 0.4499	981.685	976.658	971.558	966.415	961.229	956.01
x1 = 0.4999	962.134	957.22	952.273	947.296	942.282	937.233
x1 = 0.5503	943.764	939.011	934.225	929.407	924.551	919.661
x1 = 0.5992	927.273	922.663	918.023	913.351	908.639	903.897
x1 = 0.6492	911.359	906.886	902.382	897.844	893.27	888.66
x1 = 0.6989	896.738	892.39	888.013	883.603	879.157	874.674
x1 = 0.7503	882.325	878.102	873.846	869.558	865.235	860.873
x1 = 0.7989	869.78	865.66	861.514	857.336	853.118	848.865
x1 = 0.8497	857.292	853.282	849.241	845.167	841.058	836.912
x1 = 0.899	845.686	841.775	837.835	833.858	829.849	825.799
x1 = 0.9492	834.672	830.858	827.012	823.127	819.211	815.252

CCCC(C)O (stereo unspecified) [pentan-2-ol] + ClCCCl
mass density [kg/m3]
Settings	288.15 K	293.15 K	298.15 K	303.15 K	308.15 K	313.15 K
x1 = 0.0509	1226.72	1219.63	1212.52	1205.37	1198.2	1191
x1 = 0.0999	1196.47	1189.53	1182.56	1175.56	1168.53	1161.46
x1 = 0.1497	1167.33	1160.55	1153.74	1146.89	1140.02	1133.12
x1 = 0.2001	1139.13	1132.52	1125.87	1119.19	1112.48	1105.73
x1 = 0.2502	1112.6	1106.17	1099.71	1093.19	1086.65	1080.06
x1 = 0.2998	1087.39	1081.13	1074.82	1068.48	1062.1	1055.67
x1 = 0.3504	1062.46	1056.4	1050.28	1044.1	1037.89	1031.63
x1 = 0.4003	1038.87	1033	1027.05	1021.06	1015.01	1008.92
x1 = 0.4498	1016.42	1010.71	1004.93	999.094	993.214	987.283
x1 = 0.4996	994.615	989.082	983.473	977.807	972.094	966.328
x1 = 0.55	973.401	967.993	962.539	957.039	951.485	945.875
x1 = 0.5998	953.123	947.916	942.637	937.302	931.911	926.465
x1 = 0.6497	933.494	928.405	923.275	918.089	912.85	907.552
x1 = 0.6997	914.579	909.663	904.685	899.659	894.573	889.432
x1 = 0.7493	896.637	891.863	887.037	882.154	877.213	872.217
x1 = 0.8001	878.694	874.079	869.408	864.68	859.891	855.042
x1 = 0.8497	861.674	857.211	852.695	848.111	843.467	838.76
x1 = 0.8991	845.438	841.13	836.763	832.331	827.833	823.267
x1 = 0.9504	828.863	824.722	820.52	816.244	811.899	807.481

CCCCC(C)O (stereo unspecified) [2-hexanol] + ClCCCl
mass density [kg/m3]
Settings	288.15 K	293.15 K	298.15 K	303.15 K	308.15 K	313.15 K
x1 = 0.0502	1223.08	1216.04	1208.98	1201.9	1194.78	1187.63
x1 = 0.0999	1188.97	1182.13	1175.27	1168.37	1161.45	1154.5
x1 = 0.1504	1157.18	1150.56	1143.9	1137.21	1130.49	1123.74
x1 = 0.2001	1126.22	1120.72	1114.91	1108.44	1101.9	1095.33
x1 = 0.2498	1099.98	1093.76	1087.5	1081.2	1074.85	1068.47
x1 = 0.2995	1073.96	1068.01	1061.96	1055.85	1049.7	1043.51
x1 = 0.3499	1048.88	1043.06	1037.18	1031.25	1025.28	1019.26
x1 = 0.3999	1025.35	1019.69	1013.99	1008.24	1002.45	996.615
x1 = 0.45	1003.14	997.678	992.164	986.594	980.978	975.219
x1 = 0.4994	982.243	976.929	971.582	966.175	960.716	955.218
x1 = 0.5501	961.948	956.802	951.619	946.386	941.113	935.792
x1 = 0.5999	942.875	937.885	932.861	927.787	922.674	917.511
x1 = 0.6498	924.759	919.925	915.048	910.129	905.161	900.15
x1 = 0.6995	907.657	903.05	898.319	893.543	888.715	883.843
x1 = 0.7499	891.009	886.457	881.863	877.224	872.535	867.8
x1 = 0.8004	874.928	870.513	866.056	861.55	856.996	852.392
x1 = 0.8499	859.958	855.674	851.345	846.966	842.537	838.058
x1 = 0.8998	845.485	841.327	837.125	832.874	828.565	824.204
x1 = 0.9482	831.995	827.968	823.889	819.755	815.567	811.322

ClCCCl [1,2-dichloroethane] + CC(C)O
mass density [kg/m3]
Settings	288.15 K	293.15 K	298.15 K	303.15 K	308.15 K	313.15 K
x2 = 0.05	1235.82	1228.61	1221.38	1214.13	1206.71	1199.46
x2 = 0.1004	1211.74	1204.56	1197.38	1190.17	1182.93	1175.66
x2 = 0.1497	1188.26	1181.19	1174.09	1166.95	1159.78	1152.57
x2 = 0.2	1164.61	1157.64	1150.63	1143.59	1136.5	1129.37
x2 = 0.25	1141.22	1134.37	1127.47	1120.53	1113.54	1106.5
x2 = 0.3002	1117.88	1111.14	1104.37	1097.54	1090.67	1083.74
x2 = 0.3502	1094.71	1088.11	1081.46	1074.76	1068	1061.19
x2 = 0.4001	1071.46	1065.13	1058.72	1052.15	1045.52	1038.83
x2 = 0.4503	1048.29	1042.07	1035.7	1029.28	1022.79	1016.23
x2 = 0.4996	1025.41	1019.32	1013.1	1006.83	1000.49	994.079
x2 = 0.5502	1002	996.011	989.957	983.831	977.648	971.39
x2 = 0.6	978.769	972.943	967.056	961.099	955.079	948.987
x2 = 0.6498	955.713	950.066	944.351	938.562	932.714	926.783
x2 = 0.7	932.242	926.773	921.244	915.641	909.966	904.209
x2 = 0.75	908.934	903.601	898.262	892.85	887.36	881.789
x2 = 0.7996	885.608	880.568	875.378	870.212	864.918	859.549
x2 = 0.8495	861.973	857.114	852.182	847.228	842.144	836.984
x2 = 0.8998	837.957	833.329	828.632	823.858	819.006	814.085
x2 = 0.9497	813.892	809.502	805.032	800.505	795.891	791.195
